Molecules are shown by their SMILES. The source made the active and inactive calls. The rule behind the calls is not given here.

One may read the EC50 as the concentration at which the effect is half-maximal. A low value points to higher potency in that assay.

The species entered for assay [1] is Homo sapiens. The experiment in a line: (§1) Inhibition of replication in Huh-9-13 cells containing Wild type HCV replicons after 72 hrs. The format is functional, cell-based. In general terms: A replicon is a self-replicating genome or part of one, used to study replication in cells.
The subject of assay [2] is Hepacivirus hominis. Description: Inhibition of HCV ssRNA synthesis by crude replicase complexes prepared from Huh-9-13 cells. Format: functional.
A short description of assay [3]: as §1. The following applies: Homo sapiens. Format: functional, cell-based.
A short description of assay [4]: Inhibition of replication in M414T cells containing mutant HCV replicons after 72 hrs. The format is functional, cell-based, Homo sapiens.

As to `O=C(N[C@@H](Cc1c[nH]c2ccccc12)C(=O)O)c1ccc2c(c1)nc(-c1ccoc1)n2C1CCCCC1`, in assay [1], the outcome was inactive. The Activity entry in assay [2] is “Dose-dependent effect”.

As to `CC(C)CCn1c(=O)c(C2=NS(=O)(=O)c3ccccc3N2)c(O)c2ccccc21`, the EC50 was 900 nM in assay [3] and greater than 31600 nM in assay [4]. Besides, in assay [2], the Activity entry is “Dose-dependent effect”.
